Data taken from PMC4912613, “A broad analysis of resistance development in the malaria parasite” (Nature Communications, 2016).

Experiments:
P. falciparum = assay: Rate of killing (parasite viability) assay; type: cell-based, Plasmodium falciparum; conditions: profile compared with chloroquine, pyrimethamine, atovaquone; 48 h treatment
Method: To identify whether selection success could be predicted by compound speed of action, and to gain a greater insight into the potential mechanisms of action, assays were performed to test the killing rate (Supplementary Data 1)[33]. To quantify the killing rate, viability time-course profiles for each compound were compared with antimalarials known to have fast (chloroquine), moderate (pyrimethamine) or slow (atovaquone) rate of action. These rates were then compared with other compound characteristics, including cross-resistance profile, selection success, potency and structural characteristics to identify any possible trends. […] One compound's rate of killing, MMV666080, was unidentifiable due to compound availability. No correlation was seen between compound structure and speed of action. Additionally, there was no correlation found between killing rate and compound potency against 3D7, nor between potency and selection success (Supplementary Fig. 2).
Rate of killing was determined for each compound following a previously described methodology, which uses the invasion of fresh erythrocytes as surrogate of parasite viability. Briefly, parasites were treated with compounds for 48 h. Compound was washed out and fresh-labelled erythrocytes added to the treated parasites. Double stained erythrocytes (RBC label plus parasite DNA label) were quantified and per cent of survival determined.

[1] = system: ATQ-R4 (cytb M133I and L144S, parent 3D7); assay: Cross-resistance EC50 assay, ATQ-R4; type: cell-based, Plasmodium falciparum; conditions: Plasmodium falciparum, 3D7; SYBR green 72 hour assay; asynchronized parasites; 96-well or 1536-well format; ATQ-R4
From the text: (§1) To evaluate potential overlapping activity against known antimalarial drug targets, we performed dose-response studies with each compound against our assembled set of drug-resistant lines and their corresponding parents, in an asexual blood stage proliferation assay (Table 1). Comparisons were made to the drug-sensitive strain 3D7 when a parent was unavailable (TM90C2A, W2 and Dd2). As laboratories conducted EC50 assays with different strains and protocols, all comparisons were made between assays from the same laboratory and under the same assay conditions. Compounds displaying >5-fold EC50 shifts relative to the parent or sensitive strain were flagged as having potentially non-novel targets. Average fold shifts per strain ranged from 0.82 to 2.34, with a median of 1.23 indicating there was not common resistance to any one resistant clone. No resistance patterns were observed when classifying the compounds based on chemical structure, but this was not surprising given the diversity of compounds chosen. On the other hand, given that these confirmed compounds were derived from larger unconfirmed hit lists to which some filtration criteria may have been applied (for example, elimination of obvious dihydrofolate reductase inhibitors[32]), some[10][11][12][13] pre-existing bias may exist in the set. […]
(§2) Alternatively, a SYBR Green-based proliferation approach was used for the 72-h assay, as previously described. Briefly, a culture of either synchronized or asynchronous parasitized RBCs (0.3% parasitemia and 4% haematocrit) in screening medium (identical to supplemented medium above except no serum was added) was exposed to serial drug dilutions. Plates were incubated at 37 °C and gassed with 93% N2, 4% CO2 and 3% O2 for 72 h. Following incubation, 10 × SYBR Green I (Invitrogen; supplied in 10,000 × concentration) in lysis buffer ([…], 5 mM EDTA, 0.16% Saponin wt per vol and 1.6% Triton X vol per vol) was added to the wells and the plates were incubated overnight at room temperature before plate reading. EC50 assays were repeated three times, taking the average EC50 value from each assay set, and removing any outliers using a single iteration of Grubbs' test, eliminating values with z-scores above the critical z-value (α=0.05). The raw EC50 values for synchronized parasites assayed in a 384-well format are listed in Supplementary Data 4. The raw EC50 values for asynchronous parasites assayed in a 96 or 1536-well format are listed in Supplementary Data 5.
(§3) EC50 values for each strain were compared with those of the corresponding parent strain to determine fold-shift changes and identify resistance. To minimize the cause variance between assays, all comparisons were conducted between strains assayed under identical conditions. A one-way ANOVA followed by a Dunnet's post-test was conducted in GraphPad Prism to identify significant changes between the parent and resistant strain.

[2] = system: CYTb-G131S (cytb G131S, parent Dd2); assay: Cross-resistance EC50 assay, CYTb-G131S; type: cell-based, Plasmodium falciparum; conditions: Plasmodium falciparum, SYBR green 72 hour assay, synchronized parasites, 384-well format
From the text: as §1, §2, §3

[3] = system: DHODH (E182D, parent 3D7); assay: Cross-resistance EC50 assay, DHODH; type: cell-based; conditions: Plasmodium falciparum, SYBR green 72 hour assay, synchronized parasites, 384-well format
From the text: as §1, §2, §3

[4] = system: P. berghei exoerythrocytic forms; assay: Liver-stage P. berghei hepatocyte invasion and development assay (luminescence, HepG2); type: cell-based, Plasmodium berghei; conditions: for EC50: Plasmodium berghei, HepG2, 48 h, P. berghei sporozoites, read-out: Liver Stage EC50; for EC50 fold shift compared to asexual stage: Liver Stage EC50: liver stage EC50 / 3D7 EC50
From the text: As drugs that eliminate multiple stages of the parasite lifecycle will be critical components in global efforts to eliminate malaria, we were interested in knowing whether the compounds in our study had additional activities against either the liver and/or transmission stages of the parasite lifecycle. To determine this, we first evaluated the compounds in additional phenotypic assays. The first assay was a P. berghei hepatocyte invasion and development assay, which predicts causal prophylactic activity. Hepatocyte toxicity was additionally tested to identify false-positive activity in the liver stage due to host-cell toxicity. Assays were executed in duplicate using a 12-point EC50 curve at starting concentrations of 5 μM or 50 μM (Supplementary Table 1).
Liver-stage activity was determined by pretreating hepatic human cells (HepG2) for 2 h with compound in 1,536-well plates infected with freshly dissected P. berghei sporozoites. After 48 h of incubation, the viability of P. berghei exoerythrocytic forms was measured by luminescence reaction light output using BrightGlo (Promega). Varying levels of compound concentration were used (5 μM or 50 μM) due to the stock concentration supplied.

Row | SMILES | Killing Rate (P. falciparum) | EC50 [1] | EC50 ([2]; strain CYTb:G131S (Dd2 parent)) | EC50 ([3]; strain DHODH (3D7 parent)) | EC50 [4] | EC50 fold shift compared to asexual stage: Liver Stage EC50 [4] | EC50 ([2]; DD2, CYTb:G131S strain) | EC50 ([3]; 3D7, DHODH strain)
1 | OC(CNC1CCCCC1)Cn1c2ccc(I)cc2c2cc(I)ccc21 (stereo not shown) [MMV665882] | ATQ (slow) | 0.026 µM | 46 nM | 51 nM | 3060 nM | 42.02 | – | –
2 | COCCNCC(O)Cn1c2ccc(Cl)cc2c2cc(Cl)ccc21 (stereo not shown) [MMV019017] | CQ (fast) | 1.24 µM | 929 nM | 1040 nM | > 5000 nM | > 10 | – | –
3 | COc1cc(-c2nc(-c3ccccc3)c(-c3ccccc3)[nH]2)cc(OC)c1O [MMV020750] | PYR (moderate) | 0.912 µM | 872 nM | 509 nM | > 5000 nM | 23.86 | – | –
4 | CCCN(CCC)CC(O)COc1ccccc1C(=O)Nc1ccccc1 (stereo not shown) [MMV006455] | CQ (fast) | 0.674 µM | 319 nM | 2830 nM | > 5000 nM | > 9.4 | – | –
5 | O=C(NCC(CCCN1CCC(c2c[nH]c3ccccc23)CC1)c1ccccc1)Nc1ccc(Cl)c(Cl)c1 (stereo not shown) [MMV029272] | PYR (moderate) | 9.56 µM | 920 nM | 148 nM | 1800 nM | 13.22 | – | –
6 | CC(NCc1ccccc1)c1cc(Cl)ccc1O (stereo not shown) [MMV665789] | PYR (moderate) | 0.41 µM | 922 nM | 728 nM | > 5000 nM | > 4 | – | –
7 | FC(F)(F)c1cccc(Nc2nc3ccccc3nc2Nc2cccc(C(F)(F)F)c2)c1 [MMV665794] | PYR (moderate) | 0.434 µM | 172 nM | 187 nM | 375 nM | – | – | –
8 | O=C(Nc1ccccc1O)c1ccc(Oc2cccc(C(=O)Nc3ccccc3O)c2)cc1 [MMV665888] | PYR (moderate) | 1.05 µM | 1010 nM | 1020 nM | 648 nM | 0.54 | – | –
9 | Nc1ccc(-c2nc3cc(Cc4ccc5[nH]c(-c6ccc(N)cc6)nc5c4)ccc3[nH]2)cc1 [MMV665943] | CQ (fast) | 0.045 µM | 410 nM | 335 nM | 5950 nM | 18.84 | – | –
10 | COc1cc(C(=O)ON=C(N)Cc2cccc3ccccc23)cc(OC)c1OC [MMV666687] | CQ (fast) | 0.784 µM | 492 nM | 1070 nM | 21000 nM | – | – | –
11 | CCCOCc1cc(CN2CCN(c3cccc(Cl)c3)CC2)c(O)c2ncccc12 [MMV000787] | CQ (fast) | 1.44 µM | 632 nM | 467 nM | 600 nM | – | – | –
12 | Cc1ccc(Cn2c(N3CCC(C(=O)NCc4cccs4)CC3)nc3ccccc32)cc1 [MMV007564] | PYR/CQ (moderate) | 1.05 µM | 1300 nM | 631 nM | 1510 nM | 2.60 | – | –
13 | Nc1ccc(-c2nc3cc(Oc4ccc(Oc5ccc6[nH]c(-c7ccc(N)cc7)nc6c5)cc4)ccc3[nH]2)cc1 [MMV011895] | CQ (fast) | 0.545 µM | 328 nM | 168 nM | > 50000 nM | > 300 | – | –
14 | c1cncc(-c2cc(N3CCC(CN4CCOCC4)CC3)nc(-c3ccncc3)n2)c1 [MMV668399] | PYR (moderate) | 0.332 µM | 137 nM | 80 nM | 7040 nM | – | – | –
15 | CCC(C)NCC(O)(c1ccc(Cl)cc1)c1ccc(Cl)cc1 (stereo not shown) [MMV665928] | CQ (fast) | 0.09 µM | 669 nM | 878 nM | > 5000 nM | > 10 | – | –
16 | Cc1ccc(Oc2ncccc2C(=O)Cc2cccc3cccnc23)c(C)c1 [MMV020746] | ATQ (slow) | 1.97 µM | 327 nM | 122 nM | 12100 nM | 159.34 | – | –
17 | O=C(Nc1ccsc1C(=O)NC1CCCCC1)c1ccc(F)cc1 [MMV665939] | ATQ (slow) | 3.73 µM | 2090 nM | 771 nM | > 5000 nM | – | – | –
18 | COc1cc(-c2nc(-c3ccccc3)c(-c3ccccc3)[nH]2)ccc1OCCN(C)C [MMV027496] | PYR/CQ (moderate) | 0.305 µM | 322 nM | 128 nM | 3170 nM | 28.59 | – | –
19 | CCOc1cc2c(cc1OCC)C(c1cc(Cl)ccc1O)NCC2 (stereo not shown) [MMV000478] | CQ (fast) | 0.833 µM | 1370 nM | 1450 nM | > 5000 nM | > 5 | – | –
20 | CN(C)Cc1ccc(-c2cc3c(-c4ccc(CN(C)C)cc4)ccnc3[nH]2)cc1.O=C(O)C(F)(F)F [MMV022224] | CQ (fast) | 0.372 µM | 343 nM | 321 nM | 801 nM | – | – | –
21 | COc1ccc(-c2nc(NC(=O)Cc3ccc4c(c3)OCCO4)sc2C)cc1 [MMV019719] | CQ (fast) | 0.203 µM | 261 nM | 180 nM | 10500 nM | 63.78 | – | –
22 | CN(C)CCCN(C)C(=O)C1Cc2cc(-c3ccccc3)ccc2N1S(=O)(=O)c1ccccc1 (stereo not shown) [MMV028895] | ATQ (slow) | 1.07 µM | 390 nM | 81 nM | – | – | – | –
23 | COc1ccc2c3c([nH]c2c1)[C@H](CO)N(C(C)=O)CC31CCN(C(=O)Nc2ccccc2F)CC1 [MMV673482] | PYR (moderate) | 0.027 µM | – | – | – | – | 182 nM | 151 nM
24 | O=C(NC(c1ccccc1)c1ccc2cccnc2c1O)c1ccccc1 (stereo not shown) [MMV666080] | – | 0.746 µM | 401 nM | 779 nM | 464 nM | 0.55 | – | –
